Measurements published in ChEMBL document CHEMBL3639048, “2,5-methano- and 2,5-ethano-tetrahydrobenzazepine derivatives and use thereof to block reuptake of norepinephrine, dopamine, and serotonin” (2015).

Legend:
Assay type in all cases: cell membranes
[1] = molecular target: Sodium-dependent noradrenaline transporter (Homo sapiens, UniProt P23975); test: Radioligand Binding Assay: Compounds were dissolved in 100% DMSO at a concentration 100 times the desired highest assay concentration, serially diluted 1:3 in 100% DMSO, and 1.0 ul/well of each solution was dispensed to a Nunc polypropylene, round bottom, 384-well plate. […] 50 ul/well of a 2x membrane preparation (0.4 mg/ml in 50 mM Tris-Cl, pH 7.5, 120 mM NaCl, 5 mM KCl) and 50 ul/well of a 2x radioligand solution (4 nM [3H]nisoxetine in 50 mM Tris-Cl, pH 7.5, 120 mM NaCl, 5 mM KCl) were added to the well and the reaction incubated for 1 hour at room temperature. The contents of the assay plate were then transferred to a Millipore MultiscreenHTS GF/B filter plate which was pretreated with 0.5% PEI for at least one hour. The plate was vacuum filtered and washed with 7 washes of 100 ul/well 50 mM Tris-Cl, pH 7.5, 120 mM NaCl, 5 mM KCl chilled to 4 C.
Sodium-dependent noradrenaline transporter, sequence (P23975 whole entry): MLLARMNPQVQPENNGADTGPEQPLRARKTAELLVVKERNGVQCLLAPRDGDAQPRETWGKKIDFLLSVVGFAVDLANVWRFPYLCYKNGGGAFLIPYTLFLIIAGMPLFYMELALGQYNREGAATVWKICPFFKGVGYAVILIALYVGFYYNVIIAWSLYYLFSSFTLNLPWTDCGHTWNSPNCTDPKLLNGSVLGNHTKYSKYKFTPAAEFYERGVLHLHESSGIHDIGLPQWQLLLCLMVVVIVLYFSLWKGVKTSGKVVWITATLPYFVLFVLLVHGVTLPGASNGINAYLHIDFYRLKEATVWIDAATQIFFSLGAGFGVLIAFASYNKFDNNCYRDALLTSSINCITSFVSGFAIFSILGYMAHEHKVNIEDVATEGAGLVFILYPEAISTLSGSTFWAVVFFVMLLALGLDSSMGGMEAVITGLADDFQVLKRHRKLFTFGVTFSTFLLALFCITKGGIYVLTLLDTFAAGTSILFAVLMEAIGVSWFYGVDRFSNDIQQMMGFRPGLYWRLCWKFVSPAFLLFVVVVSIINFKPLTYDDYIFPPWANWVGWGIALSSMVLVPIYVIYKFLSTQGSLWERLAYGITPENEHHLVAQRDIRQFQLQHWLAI

[2] = molecular target: Sodium-dependent serotonin transporter (Homo sapiens, UniProt P31645); test: Radioligand Binding Assay: Compounds were dissolved in 100% DMSO at a concentration 100 times the desired highest assay concentration, serially diluted 1:3 in 100% DMSO, and 0.4 ul/well of each solution was dispensed to a Nunc polypropylene, round bottom, 384-well plate. […] 20 ul/well of a 2x membrane preparation (15 ug/ml in 50 mM Tris-Cl, pH 7.5, 120 mM NaCl, 5 mM KCl) and 20 ul/well of a 2x radioligand solution (520 pM [125I]RTI-55 in 50 mM Tris-Cl, pH 7.5, 120 mM NaCl, 5 mM KCl) were added to each well and the reaction incubated for 1 hour at room temperature. The contents of the assay plate were then transferred to a Millipore MultiscreenHTS GF/B filter plate which was pretreated with 0.5% PEI for at least one hour. The plate was vacuum filtered and washed with 7 washes of 100 uA/well 50 mM Tris-Cl, pH 7.5, 120 mM NaCl, 5 mM KCl chilled to 4 C.
Sodium-dependent serotonin transporter, sequence (P31645 whole entry): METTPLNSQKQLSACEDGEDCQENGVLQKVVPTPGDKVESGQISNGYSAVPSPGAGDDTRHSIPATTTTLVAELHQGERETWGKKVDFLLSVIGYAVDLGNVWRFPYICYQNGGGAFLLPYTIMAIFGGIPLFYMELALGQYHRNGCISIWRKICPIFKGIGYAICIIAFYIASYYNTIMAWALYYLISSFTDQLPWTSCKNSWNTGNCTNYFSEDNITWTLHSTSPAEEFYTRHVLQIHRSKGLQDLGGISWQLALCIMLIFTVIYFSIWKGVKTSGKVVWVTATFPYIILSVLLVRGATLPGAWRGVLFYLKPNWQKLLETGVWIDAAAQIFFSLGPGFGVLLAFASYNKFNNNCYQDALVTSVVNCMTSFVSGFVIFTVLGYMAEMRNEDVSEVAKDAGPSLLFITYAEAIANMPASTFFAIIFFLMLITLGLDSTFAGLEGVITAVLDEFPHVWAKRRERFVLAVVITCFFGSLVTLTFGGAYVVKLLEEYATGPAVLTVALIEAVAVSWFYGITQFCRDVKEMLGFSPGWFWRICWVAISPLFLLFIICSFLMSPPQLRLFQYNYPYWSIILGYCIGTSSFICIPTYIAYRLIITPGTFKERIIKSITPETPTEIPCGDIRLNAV

[3] = molecular target: Sodium-dependent dopamine transporter (Homo sapiens, UniProt Q01959); test: Radioligand Binding Assay: Compounds were dissolved in 100% DMSO at a concentration 100 times the desired highest assay concentration, serially diluted 1:3 in 100% DMSO, and 0.4 ul/well of each solution was dispensed to a Nunc polypropylene, round bottom, 384-well plate. […] 20 ul/well of a 2x membrane preparation (12.5 ug/ml in 30 mM sodium phosphate buffer, pH 7.9 at 4 C.) and 20 ul/well of a 2x radioligand solution (250 pM [125I]RTI-55 in 30 mM sodium phosphate buffer, pH 7.9 at 4 C.) were added to the well and the reaction incubated for 1 hour at room temperature. The contents of the assay plate were then transferred to a Millipore MultiscreenHTS GF/B filter plate which was pretreated with 0.5% PEI for at least one hour. The plate was vacuum-filtered and washed with 7 washes of 100 ul/well 50 mM Tris-Cl, pH 7.5, 120 mM NaCl, 5 mM KCl chilled to 4 C.
Sodium-dependent dopamine transporter, sequence (Q01959 whole entry): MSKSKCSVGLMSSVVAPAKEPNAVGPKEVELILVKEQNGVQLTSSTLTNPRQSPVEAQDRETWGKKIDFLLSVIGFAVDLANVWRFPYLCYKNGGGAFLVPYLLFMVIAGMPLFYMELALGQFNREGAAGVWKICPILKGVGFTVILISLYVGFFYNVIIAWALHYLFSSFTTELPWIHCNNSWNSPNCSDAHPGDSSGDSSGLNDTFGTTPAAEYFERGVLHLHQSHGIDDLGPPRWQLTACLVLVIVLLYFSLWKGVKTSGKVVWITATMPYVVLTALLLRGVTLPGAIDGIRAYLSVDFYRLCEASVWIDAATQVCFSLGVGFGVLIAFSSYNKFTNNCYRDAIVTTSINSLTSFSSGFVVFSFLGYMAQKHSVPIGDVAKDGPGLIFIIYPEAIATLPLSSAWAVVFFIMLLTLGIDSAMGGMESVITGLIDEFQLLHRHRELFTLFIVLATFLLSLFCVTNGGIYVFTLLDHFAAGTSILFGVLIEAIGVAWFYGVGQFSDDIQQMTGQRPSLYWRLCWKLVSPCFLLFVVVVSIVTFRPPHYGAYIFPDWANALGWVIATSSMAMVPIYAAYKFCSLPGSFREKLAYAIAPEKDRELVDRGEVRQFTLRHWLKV

In the case of `O=c1[nH]c2ccc(-c3ccc4c(c3)CN3CCC4(c4ccc(Cl)c(Cl)c4)CC3)cc2o1`, the IC50 [1] is reported as 451 nM, the IC50 [2] is reported as 9.3 nM and the IC50 [3] is reported as 25.5 nM.
